According to article PMC4379176, “Unsaturation of Very-Long-Chain Ceramides Protects Plant from Hypoxia-Induced Damages by Modulating Ethylene Signaling in Arabidopsis” (PLoS Genetics, 2015):
Where two headings read alike, the source gives them in different places.

Experiments:
[1] = target: T1, rCTR1 (Arabidopsis thaliana, UniProt Q05609); assay: microscale thermophoresis; format: binding
T1 construct: gene CTR1; full-length CTR1 coding region, N-terminal GST fusion (pGEX-6P-1), E. coli BL21 (DE3); tag kept (detected by anti-GST)
T1 sequence (Q05609 1-821): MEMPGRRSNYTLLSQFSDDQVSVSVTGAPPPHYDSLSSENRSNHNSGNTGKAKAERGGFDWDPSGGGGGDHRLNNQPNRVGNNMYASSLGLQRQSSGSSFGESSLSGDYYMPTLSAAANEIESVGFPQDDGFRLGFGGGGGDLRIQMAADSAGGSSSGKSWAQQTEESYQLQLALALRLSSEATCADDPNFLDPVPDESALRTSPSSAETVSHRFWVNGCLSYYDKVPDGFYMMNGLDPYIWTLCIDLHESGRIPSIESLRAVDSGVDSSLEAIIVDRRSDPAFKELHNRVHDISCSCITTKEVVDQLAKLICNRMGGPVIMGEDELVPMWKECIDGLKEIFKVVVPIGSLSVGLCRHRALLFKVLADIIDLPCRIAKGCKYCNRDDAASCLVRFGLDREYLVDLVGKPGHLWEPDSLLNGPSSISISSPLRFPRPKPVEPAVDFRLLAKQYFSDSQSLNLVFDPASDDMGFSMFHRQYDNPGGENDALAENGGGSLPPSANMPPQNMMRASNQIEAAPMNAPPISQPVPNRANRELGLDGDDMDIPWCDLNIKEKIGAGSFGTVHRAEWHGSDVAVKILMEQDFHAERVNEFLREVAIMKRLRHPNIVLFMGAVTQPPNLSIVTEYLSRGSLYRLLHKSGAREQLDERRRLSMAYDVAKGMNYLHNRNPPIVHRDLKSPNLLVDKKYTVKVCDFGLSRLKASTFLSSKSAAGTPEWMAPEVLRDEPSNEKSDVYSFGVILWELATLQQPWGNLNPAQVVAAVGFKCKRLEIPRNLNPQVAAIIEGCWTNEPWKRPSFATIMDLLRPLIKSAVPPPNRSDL
Source text: microscale thermophoresis on rCTR1

[2] = target: T2, rCTR1-K (Arabidopsis thaliana, UniProt Q05609); assay: microscale thermophoresis; format: binding; settings: liposomes of the lipid, 10 nM RED-labelled protein, 50 mM Tris-HCl pH 7.4, 150 mM NaCl, 10 mM MgCl2, 0.05% Tween-20
T2 construct: gene CTR1; tag kept
Source text: microscale thermophoresis on rCTR1-K

[3] = target: T1, rCTR1; assay: TR-FRET kinase assay (HTRF KinEASE, STK Substrate 2-biotin); format: biochemical; settings: liposomes pre-incubated 30 min at 4°C; 100 μM ATP, 1 μM STK Substrate 2-biotin; room temperature; inhibition
[4] = target: T2, rCTR1-K; assay: as above; format: biochemical; settings: liposomes pre-incubated 30 min at 4°C; 100 μM ATP, 1 μM STK Substrate 2-biotin; room temperature; inhibition
[5] = read-out: Dissociation Constants (K d) / 24:1-Cer

## 18:0-Cer
[1]; liposomes of the lipid, 10 nM RED-labelled protein, 50 mM Tris-HCl pH 7.4, 150 mM NaCl, 10 mM MgCl2, 0.05% Tween-20, highest liposome concentration 50 μM, no binding seen on filters, read-out: Dissociation Constants (K d) / 18:0-Cer
  Kd: 50.6 ± 5.2 µM
[2]; read-out: Dissociation Constants (K d) / 18:0-Cer
  Kd: 49.3 ± 7 µM

## 24:0-Cer
[1]; liposomes of the lipid, 10 nM RED-labelled protein, 50 mM Tris-HCl pH 7.4, 150 mM NaCl, 10 mM MgCl2, 0.05% Tween-20, read-out: Dissociation Constants (K d) / 24:0-Cer
  Kd: 10.8 ± 1.3 µM
[2]; read-out: Dissociation Constants (K d) / 24:0-Cer
  Kd: 4.3 ± 1.3 µM

## CCCCCCCC/C=C\CCCCCCCCCCCCCC(=O)N[C@@H](CO)[C@H](O)/C=C/CCCCCCCCCCCCC [24:1-Cer]
[1]; [5]
  Kd: 1.6 ± 0.1 µM
[3]
  relative CTR1 activity at 1 nM: both rCTR1 and rCTR1-K proteins exhibited decreased kinase activities
[4]
  relative CTR1 activity at 1 nM: both rCTR1 and rCTR1-K proteins exhibited decreased kinase activities
[2]; [5]
  Kd: 1 ± 0.1 µM
